In experiment [1] the test system is IL-17 production by CD4 T cells. The experiment is described as follows: Human Th17 Assay. Particulars: 3 days. Format: cell-based. From the text: The human Th17 assay tests the effect of RORγt modulatory compounds on IL-17 production by CD4 T cells under conditions which favor Th17 differentiation. Total CD4^+ T cells were isolated from the peripheral blood mononuclear cells (PBMC) of healthy donors using a CD4^+ T cell isolation kit II, following the manufacturer's instructions (Miltenyi Biotec). Cells were resuspended in a medium of RPMI-1640 supplemented with 10% fetal bovine serum, penicillin, streptomycin, glutamate, and β-mercaptoethanol and were added to 96-well plates at 1.5×10^5 per 100 μL per well. 50 μL of compound at titrated concentrations in DMSO were added into each well at final DMSO concentration at 0.2%. Cells were incubated for 1 hour, then 50 μL of Th17 cell differentiation medium was added to each well. The final concentrations of antibodies and cytokines (R&D Systems) in differentiation medium were: 3×10^6/mL anti-CD3/CD28 beads (prepared using human T cell activation/expansion kit, Miltenyi Biotec), 10 μg/mL anti-IL4, 10 μg/mL anti-IFNγ, 10 ng/mL IL1β, 10 ng/mL IL23, 50 ng/mL IL6, 3 ng/mL TGFβ and 20 U/mL IL2. Cells were cultured at 37° C. and 5% CO2 for 3 days. Supernatants were collected and the accumulated IL-17 in culture was measured by using MULTI-SPOT® Cytokine Plate following manufacture's instruction (Meso Scale Discovery). The plate was read using Sector Imager 6000, and IL-17 concentration was extrapolated from the standard curve. The IC50s were determined by GraphPad.

The target in the next experiment is human RORγt LBD (Homo sapiens (Human), UniProt P51449). Description: RORγt Reporter Assay. Format: cell-based. The note with it: for inhibition at 6 µM: HEK-293T, read-out: RORγt reporter Assay, % inhibition @ 6 μM, HEK293T cells, 6 μM. From the text:
A reporter assay was used to test functional activity of RORγt modulatory compounds on transcriptional activation driven by the RORγt LBD. Cells used in the assay were co-transfected with two constructs. The first construct, pBIND-RORγt LBD, contained the wild type human RORγt LBD fused to the DNA binding domain of the GAL4 protein. The second construct, pGL4.31 (Promega Cat no. C935A), contained multiple GAL4 responsive DNA elements upstream of firefly luciferase. […] The mutant construct was called pBIND-RORγt-AF2.
The pBIND vector contains the GAL4 DNA Binding Domain (GAL4 DBD) and the renilla luciferase gene under control of the SV40 promoter. Renilla luciferase expression serves as a control for transfection efficiency and cell viability.
The reporter assay was performed by transiently transfecting HEK293T cells with 5 μg of pBIND-RORγt LBD or pBIND-RORγt LBD-AF2 and 5 μg pGL4.31 (Promega Cat no. C935A) using Fugene 6 (Invitrogen Cat no. E2691) at a 1:6 ratio of DNA:Fugene 6 in a T-75 flask in which cells were at least 80% confluent. Twenty four hours after bulk transfection, cells were plated into 96-well plates at 50,000 cells/well in phenol-red free DMEM containing 5% Lipid Reduced FCS and Pen/Strep. Six hours after plating, cells were treated with compounds for 24 hours. Media was removed and cells were lysed with 50 μL 1× Glo Lysis Buffer (Promega). Dual Glo Luciferase Reagent (50 μL/well) was then added and firefly luciferase luminescence was read on an Envision after a ten minute incubation. Finally, Stop and Glo reagent (50 μL/well) was added and renilla luciferase luminescence was read on an Envision after a ten minute incubation. To calculate the effect of compounds on RORγt activity, the ratio of firefly to renilla luciferase was determined and plotted against compound concentration. Agonist compounds increase RORγt-driven luciferase expression, and antagonist or inverse agonist compounds decrease luciferase expression.
(Reporter assays use an easily measured gene product as a stand-in for the process of interest.)

Structures can show the parent of a compound that is named as a salt.

human RORγt LBD, sequence (P51449 258-518): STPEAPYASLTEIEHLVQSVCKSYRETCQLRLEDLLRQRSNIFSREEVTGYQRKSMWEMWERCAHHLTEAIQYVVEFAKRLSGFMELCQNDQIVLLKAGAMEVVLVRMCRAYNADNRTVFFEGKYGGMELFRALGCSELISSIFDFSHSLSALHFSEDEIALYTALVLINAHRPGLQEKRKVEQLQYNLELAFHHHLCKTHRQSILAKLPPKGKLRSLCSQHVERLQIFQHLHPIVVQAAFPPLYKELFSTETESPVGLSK

A word on the IC50: it is the midpoint of a concentration-inhibition curve. The low end stands for greater potency in that assay, the high end for weaker potency in that assay. Turning to `COc1nc2ccc(C(C)(O)c3cnnn3C)cc2c(Cl)c1Cc1ccc(C(F)(F)F)cc1` (single isomer, unassigned) [Example 11c, 1-(4-Chloro-2-methoxy-3-(4-(trifluoromethyl)benzyl)quinolin-6-yl)-1-(1-methyl-1H-1,2,3-triazol-5-yl)ethanol], the values for the IC50 (in experiment [1]; on human RORγt LBD (HEK293T cells)) were 0.057 µM and 0.015 µM, respectively. Moreover, the “RORγt reporter Assay, % inhibition @ 6 μM” value on human RORγt LBD (HEK293T cells, 6 μM) was found to be 99%.
What is called inhibition is the relative decrease from the control value, in per cent. `COc1nc2ccc(C(C)(O)c3cnnn3C)cc2c(Cl)c1Cc1ccc(C(F)(F)F)cc1` (single isomer, unassigned) [Example 11b, 1-(4-Chloro-2-methoxy-3-(4-(trifluoromethyl)benzyl)quinolin-6-yl)-1-(1-methyl-1H-1,2,3-triazol-5-yl)ethanol]: the IC50 in experiment [1] came to 0.87 µM; against human RORγt LBD (HEK293T cells), 0.21 µM. Moreover, the inhibition at 6 µM on human RORγt LBD is 98%.
As for `CCC(O)(c1ccc2nc(Cl)c(-c3ccccc3)c(Cl)c2c1)c1cc(C)no1` (stereo not shown) [Example 2, 1-(2,4-Dichloro-3-phenylquinolin-6-yl)-1-(3-methylisoxazol-5-yl)propan-1-ol.TFA], in experiment [1] (Homo sapiens, 72 h), the IC50 was ~6 µM.
`COc1nc2ccc(C(C)(O)c3oc(C)nc3C)cc2c(Cl)c1Cc1ccc(C(F)(F)F)cc1` (single isomer, unassigned) [Example 10a, 1-(4-Chloro-2-methoxy-3-(4-(trifluoromethyl)benzyl)quinolin-6-yl)-1-(2,4-dimethyloxazol-5-yl)ethanol]: the IC50 at human RORγt LBD (HEK293T cells) was 0.25 µM. Besides, at human RORγt LBD, the inhibition at 6 µM stood at 101%.
Take `CCCCC(O)(c1ccc2nc(Cl)c(-c3ccccc3)c(Cl)c2c1)c1cc(C)no1` (stereo not shown) [Example 1, 1-(2,4-Dichloro-3-phenylquinolin-6-yl)-1-(3-methylisoxazol-5-yl)pentan-1-ol.TFA]: the IC50 in experiment [1] (Homo sapiens, 72 h) is ~3 µM.
With `COc1nc2ccc(C(C)(O)c3cncn3C)cc2c(Cl)c1Cc1ccc(C(F)(F)F)cc1` (stereo not shown) [Example 9a, 1-(4-Chloro-2-methoxy-3-(4-(trifluoromethyl)benzyl)quinolin-6-yl)-1-(1-methyl-1H-imidazol-5-yl)ethanol], on human RORγt LBD (HEK293T cells), half-maximal inhibition (IC50) was put at 0.28 µM. In addition, the inhibition at 6 µM at human RORγt LBD was determined as 98%.
Regarding `C#CC(O)(c1ccc2nc(OC)c(Cc3ccc(C(F)(F)F)cc3)c(Cl)c2c1)C1CN(C(C)=O)C1` (stereo not shown) [Example 7a, 1-(3-(1-(4-Chloro-2-methoxy-3-(4-(trifluoromethyl)benzyl)quinolin-6-yl)-1-hydroxyprop-2-yn-1-yl)azetidin-1-yl)ethanone], the midpoint of inhibition against human RORγt LBD (HEK293T cells), the IC50, lay at 0.23 µM. Further, on human RORγt LBD, the inhibition at 6 µM came to 95%.
On to `Cn1cncc1C(O)(c1ccc2nc(Cl)c(-c3ccccc3)c(Cl)c2c1)C1CC1` (stereo not shown) [Example 3, Cyclopropyl(2,4-dichloro-3-phenylquinolin-6-yl)(1-methyl-1H-imidazol-5-yl)methanol], for which the 50% inhibitory concentration (IC50) against human RORγt LBD (HEK293T cells) is > 6 µM. On human RORγt LBD, the inhibition at 6 µM came out at 56%.
The matching figures for `COc1nc2ccc(C(C)(O)c3cnc(C)n3C)cc2c(Cl)c1Cc1ccc(C(F)(F)F)cc1` (stereo not shown) [Example 12a, 1-(4-Chloro-2-methoxy-3-(4-(trifluoromethyl)benzyl)quinolin-6-yl)-1-(1,2-dimethyl-1H-imidazol-5-yl)ethanol]: 0.37 µM and 99%.
`CC(C)C(O)(c1ccc2nc(Cl)c(-c3ccccc3)c(Cl)c2c1)c1cncn1C` (stereo not shown) [Example 5, 1-(2,4-Dichloro-3-phenylquinolin-6-yl)-2-methyl-1-(1-methyl-1H-imidazol-5-yl)propan-1-ol] registered an IC50 on human RORγt LBD (HEK293T cells) of 1.3 µM. The inhibition at 6 µM at human RORγt LBD turned out to be 118%.
Regarding `COc1nc2ccc(C(C)(O)c3cncn3C)cc2c(Cl)c1Cc1ccc(C(F)(F)F)cc1` (single isomer, unassigned) [Example 9b, 1-(4-Chloro-2-methoxy-3-(4-(trifluoromethyl)benzyl)quinolin-6-yl)-1-(1-methyl-1H-imidazol-5-yl)ethanol], the IC50 against human RORγt LBD (HEK293T cells) came to 1.3 µM. In addition, the inhibition at 6 µM on human RORγt LBD is 89%.
The like results for `CCC(O)(c1ccc2nc(OC)c(Cc3ccc(C(F)(F)F)cc3)c(Cl)c2c1)C1CN(C(=O)OC(C)(C)C)C1` (stereo not shown) [Example 17, tert-Butyl-3-(1-(4-chloro-2-methoxy-3-(4-(trifluoromethyl)benzyl)quinolin-6-yl)-1-hydroxypropyl)azetidine-1-carboxylate] were, in that order, 0.5 µM and 98%.
On to `C#CC(O)(c1ccc2nc(OC)c(Cc3ccc(C(F)(F)F)cc3)c(Cl)c2c1)C1CN(C(=O)OC(C)(C)C)C1` (stereo not shown) [Example 8, tert-Butyl-3-(1-(4-chloro-2-methoxy-3-(4-(trifluoromethyl)benzyl)quinolin-6-yl)-1-hydroxyprop-2-yn-1-yl)azetidine-1-carboxylate], for which, on human RORγt LBD (HEK293T cells), the half-inhibitory concentration (IC50) is 4 µM. Further, at human RORγt LBD, the inhibition at 6 µM is 71%.
The matching figures for `Cc1nc(C)c(C(O)(c2ccc3nc(Cl)c(-c4ccccc4)c(Cl)c3c2)C(C)C)s1` (stereo not shown) [Example 15, 1-(2,4-Dichloro-3-phenylquinolin-6-yl)-1-(2,4-dimethylthiazol-5-yl)-2-methylpropan-1-ol]: ~0.5 µM and 99%.
The like results for `C#CC(O)(c1ccc2nc(OC)c(Cc3ccc(C(F)(F)F)cc3)c(Cl)c2c1)c1cnc(C)n1C` (stereo not shown) [Example 14a, 1-(4-Chloro-2-methoxy-3-(4-(trifluoromethyl)benzyl)quinolin-6-yl)-1-(1,2-dimethyl-1H-imidazol-5-yl)prop-2-yn-1-ol] were, in that order, 0.21 µM and 81%.
The like results for `C#CC(O)(c1ccc2nc(OC)c(Cc3ccc(C(F)(F)F)cc3)c(Cl)c2c1)C1CN(C(C)=O)C1` (single isomer, unassigned) [Example 7b, 1-(3-(1-(4-chloro-2-methoxy-3-(4-(trifluoromethyl)benzyl)quinolin-6-yl)-1-hydroxyprop-2-yn-1-yl)azetidin-1-yl)ethanone] were, in that order, 0.36 µM and 97%.
In turn, `CCC(O)(c1ccc2nc(OC)c(Cc3ccc(S(C)(=O)=O)cc3)c(Cl)c2c1)c1cncn1C` (stereo not shown) [Example 6, 1-(4-Chloro-2-methoxy-3-(4-(methylsulfonyl)benzyl)quinolin-6-yl)-1-(1-methyl-1H-imidazol-5-yl)propan-1-ol] returned a half-maximal inhibitory concentration (IC50) at human RORγt LBD (HEK293T cells) of 1.7 µM. For the same compound, the inhibition at 6 µM on human RORγt LBD turned out to be 76%.
The like results for `COc1nc2ccc(C(C)(O)c3ccc(C)nc3C)cc2c(Cl)c1Cc1ccc(C(F)(F)F)cc1` (stereo not shown) [Example 13a, 1-(4-Chloro-2-methoxy-3-(4-(trifluoromethyl)benzyl)quinolin-6-yl)-1-(2,6-dimethylpyridin-3-yl)ethanol] were, in that order, 0.052 µM and 103%.
`CCCCC(O)(c1ccc2nc(Cl)c(-c3ccccc3)c(Cl)c2c1)c1cncn1C` (stereo not shown) [Example 4, 1-(2,4-Dichloro-3-phenylquinolin-6-yl)-1-(1-methyl-1H-imidazol-5-yl)pentan-1-ol.TFA]: the concentration for half-maximal inhibition (IC50) against human RORγt LBD (HEK293T cells) was determined as 1.5 µM. Also, the inhibition at 6 µM on human RORγt LBD was 114%.
`COc1nc2ccc(C(C)(O)c3cnnn3C)cc2c(Cl)c1Cc1ccc(C(F)(F)F)cc1` (stereo not shown) [Example 11a, 1-(4-Chloro-2-methoxy-3-(4-(trifluoromethyl)benzyl)quinolin-6-yl)-1-(1-methyl-1H-1,2,3-triazol-5-yl)ethanol] registered an IC50 against human RORγt LBD (HEK293T cells) of 0.11 µM. Moreover, at human RORγt LBD, the inhibition at 6 µM came out at 102%.

These data come from patent US9346782B2, “Alkyl linked quinolinyl modulators of RORγt” (Janssen Pharmaceutica NV, priority 2013, dated 2016).
